Holding throughout (format): cell-based
For one assay, the target named is T1, EGFR L858R&T790M (Homo sapiens, UniProt P00533, L858R/T790M).
T1 construct: host or cells: NCI-H1975
Nature of the assay: EGFR L858R and T790M cellular phosphorylation inhibition in NCI-H1975 (MSD).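 Also: phosphorylated and total EGFR detected by electrochemiluminescence, cells exposed to compound in medium containing 1% FBS at 37 °C.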 As to conditions: NCI-H1975 cells, 4 h compound, p-EGFR(Y1068)/total EGFR; read-out: EGFR L858R and T790M mutation IC50.

The subject of assay [1] is NCI-H1975 EGFR L858R/T790M cells. Kind of assay: Cell proliferation, NCI-H1975 EGFR L858R/T790M (CellTiter-Glo, 72 h).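 Also: viable cells quantified by luciferase-based ATP luminescence, proliferation expressed relative to DMSO-treated wells (100%) after subtracting a parallel plate read at the time of dosing.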 As to conditions: Homo sapiens, NCI-H1975, 72 h, NCI-H1975, 72 h proliferation; read-out: EGFR L858R and T790M mutation GI50. In general terms: In ATP-based viability assays light output follows the ATP content of the culture.
Method: WT or mutant cells were seeded in 384 well plates at appropriate concentrations with corresponding growth media supplemented with 10% FBS, for each experiment, identical plates were prepared in duplicates, and the plates were incubated overnight. On the next day, one of each duplicated plates was dosed with tested compounds at a series of concentrations, and another one of the duplicated plate was analysied for G0 value. The dosed plates were incubate for another 72 h at 37° C. with 5% CO2 and the number of viable cells in each well of the G0 plates or the dosed plates were measured by CellTiter-Glo® Luminescent Cell Viability Assay (Promega). This assay is a luminescent method for determining the number viable cells through measurement of cellular ATP concentration by detection of luciferase activity. Detection reagents (15 µl) was dispensed into per well, and the plates were incubate for 30 min at room temperature. Then, the luminescence in each well was measured using the Envision plate reader (PerkinElmer). The percentage of proliferation was calculated based on the formula: %Proliferation= 100 × (G3 value of sample well-Go value)/(G3 value of DMSO control-Go value).
Assay [2] has as its target T2, human EGFR exon 20 H773_V774insNPH (Homo sapiens, UniProt P00533, INS773NPH).
T2 construct: host or cells: Ba/F3
Kind of assay: EGFR Exon20 NPH insertion cellular phosphorylation inhibition (MSD pEGFR Y1068/total EGFR).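 Also: IL3-independent Ba/F3 cells with constitutively phosphorylated EGFR, compound exposure at 37 °C under 5% CO2, electrochemiluminescent MSD measurement of the p-EGFR to total EGFR ratio.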 Particulars: Ba/F3 EGFR NPH ins cells, 4 h compound, p-EGFR(Y1068)/total EGFR.
Method: One day before the test, WT or mutant cells were seeded in 96 well plates at appropriate concentrations with corresponding growth media supplemented with 1% FBS, and incubated overnight. The next day, tested compounds at a series of concentrations were added into each individual well of the plates, and the plates were incubated for 4 h at 37° C. with 5% CO2.
The EGFR (Y1068) phosphorylation level (activity) of cells in each well were then measured with MSD kit named “MULTI-SPOT®96 4-Spot HB Prototype EGFR Triplex [sequence]: pEGFR(Tyr1068),pEGFR(Tyr1173), Total EGFR” according to the manufacturer’s instruction (MESO SCALE DISCOVERY, Cat# N45ZB-1). The assay is an electrochemiluminescent method for determining both phosphorylated and total EGFR of cells with an MSD SECTOR® Imager and the ratio of p-EGFR/total EGFR can be generated by the machine.

For a further assay, the system named is TMD-8 cells. Kind of assay: BTK (wt) cell proliferation, TMD-8 (CellTiter-Glo, 72 h).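 Also: viable cells quantified by ATP-based luminescence, proliferation expressed as percent of DMSO control after subtracting a time-zero baseline plate read at dosing.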 Particulars: Homo sapiens, TMD8, 72 h, TMD-8 cells, 72 h, CellTiter-Glo; read-out: BTK WT TMD-8 GI50.
Another assay deals with OCI-LY-10 cells. Kind of assay: BTK (wt) cell proliferation, OCI-LY-10 (CellTiter-Glo, 72 h).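 Also: viable cells quantified via cellular ATP luminescence, proliferation given as percent of DMSO control after subtracting a duplicate plate read at time of dosing.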 Particulars: Homo sapiens, OCI-Ly10, 72 h, OCI-LY-10 cells, 72 h, CellTiter-Glo; read-out: BTK WT OCI-LY-10 GI50.
Assay [3] addresses T3, human Her2 exon 20 insertion mutation YVMA (Homo sapiens, UniProt P04626, INS775YVMA).
T3 construct: expressed in transfected cells; host or cells: NIH-3T3, lentiviral transduction, puromycin selection
Kind of assay: Her2 Exon 20 YVMA insertion cellular phosphorylation inhibition (MSD p-Her2 Y1248/total Her2).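 Also: lentivirally transduced NIH-3T3 cells in 1% FBS medium, electrochemiluminescent MSD read-out, graded compound concentrations at 37 °C.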 As to conditions: Her2 YVMAins cells, 4 h compound.

Assay [4] has as its system Her2 exon 20 insertion YVMA transduced NIH-3T3 cell line. Nature of the assay: Cell proliferation, Her2 YVMAins NIH-3T3 (CellTiter-Glo, 72 h).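 Also: viable cells quantified by ATP luminescence, growth over a day-zero baseline plate expressed as percent of DMSO control growth, compound dilution series in 10% FBS medium.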 Particulars: Mus musculus, NIH3T3, 72 h, Her2 YVMAins cells, 72 h proliferation; read-out: Her2 Exon 20 YVMA insertion GI50.
The test system of the next assay is Ba/F3 EGFR NPH ins cells. Kind of assay: Cell proliferation, Ba/F3 EGFR NPH ins (CellTiter-Glo, 72 h).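 Also: IL3-independent cells carrying constitutively phosphorylated EGFR, compound dilution series, viable cells quantified by ATP luminescence, growth relative to DMSO wells after subtracting pre-dosing (day 0) baseline.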 Particulars: Ba/F3 EGFR, 72 h, Ba/F3 EGFR NPH ins, 72 h proliferation; read-out: EGFR Exon20 NPH insertion GI50.
Another assay deals with T4, WT EGFR (Homo sapiens, UniProt P00533).
T4 construct: host or cells: A-431
T4 sequence (P00533 25-1210): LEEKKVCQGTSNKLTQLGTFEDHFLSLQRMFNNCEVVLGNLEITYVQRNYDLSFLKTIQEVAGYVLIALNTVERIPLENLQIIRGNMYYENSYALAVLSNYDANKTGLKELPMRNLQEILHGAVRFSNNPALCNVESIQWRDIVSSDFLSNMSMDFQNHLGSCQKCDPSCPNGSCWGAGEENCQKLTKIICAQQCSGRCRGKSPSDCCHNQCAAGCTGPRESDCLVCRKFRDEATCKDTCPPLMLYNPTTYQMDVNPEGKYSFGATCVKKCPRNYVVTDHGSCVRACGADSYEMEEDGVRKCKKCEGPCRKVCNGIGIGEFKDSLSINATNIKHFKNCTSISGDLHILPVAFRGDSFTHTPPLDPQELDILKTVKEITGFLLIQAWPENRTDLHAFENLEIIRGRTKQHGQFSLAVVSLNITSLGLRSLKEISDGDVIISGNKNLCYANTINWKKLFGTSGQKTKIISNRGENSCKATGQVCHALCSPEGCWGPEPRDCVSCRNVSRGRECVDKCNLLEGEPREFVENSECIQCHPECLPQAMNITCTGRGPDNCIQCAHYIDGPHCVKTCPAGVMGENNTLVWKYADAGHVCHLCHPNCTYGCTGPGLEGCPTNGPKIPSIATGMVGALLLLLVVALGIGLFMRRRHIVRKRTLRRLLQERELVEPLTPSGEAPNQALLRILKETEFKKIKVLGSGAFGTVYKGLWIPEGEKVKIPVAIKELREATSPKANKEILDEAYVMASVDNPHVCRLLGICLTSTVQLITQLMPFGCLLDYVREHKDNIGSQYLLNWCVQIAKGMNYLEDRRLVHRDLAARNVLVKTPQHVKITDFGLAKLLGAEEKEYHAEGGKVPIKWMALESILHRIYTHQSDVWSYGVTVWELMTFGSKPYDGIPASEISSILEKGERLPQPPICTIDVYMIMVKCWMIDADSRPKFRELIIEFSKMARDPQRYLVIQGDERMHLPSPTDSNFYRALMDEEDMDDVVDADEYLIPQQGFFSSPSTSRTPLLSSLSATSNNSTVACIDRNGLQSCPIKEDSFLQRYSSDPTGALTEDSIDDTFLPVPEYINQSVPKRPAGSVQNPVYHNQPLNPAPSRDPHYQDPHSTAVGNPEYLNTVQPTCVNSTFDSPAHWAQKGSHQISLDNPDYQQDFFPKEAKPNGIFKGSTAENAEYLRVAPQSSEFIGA
Nature of the assay: WT EGFR cellular phosphorylation inhibition in A-431 (hEGF stimulated, MSD).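 Also: electrochemiluminescence read-out of EGFR Tyr1068 phosphorylation expressed as ratio to total EGFR, cells kept in medium with 1% FBS, compounds tested as a concentration series.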 Particulars: A431 cells, 4 h compound, then 100 ng/ml hEGF 10 min.

The subject of another assay is Ri-1 cells. Kind of assay: BTK (wt) cell proliferation, Ri-1 (CellTiter-Glo, 72 h).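 Also: viable cells quantified as cellular ATP luminescence, proliferation normalized to a time-zero plate and the DMSO control, compounds tested across a dilution series.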 As to conditions: Ri-1, 72 h, Ri-1 cells, 72 h, CellTiter-Glo; read-out: BTK WT Ri-1 GI50.
For a further assay, the system named is DB cells. Nature of the assay: BTK (wt) cell proliferation, DB (CellTiter-Glo, 72 h).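 Also: DB cells in 384-well plates given a dilution series of compound, viable cells read by ATP luminescence, growth expressed versus DMSO control after subtracting a time-zero plate reading.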 As to conditions: Homo sapiens, DB, DB cells, CellTiter-Glo, read-out: Non-BCR activated DB GI50.
Assay [5] concerns the target T5, human EGFR exon 20 V769_D770insASV (Homo sapiens, UniProt P00533, INS769ASV).
T5 construct: expressed in transfected cells; host or cells: Ba/F3 (DSMZ ACC-300), lentiviral transduction, puromycin selection, IL3 depletion
Nature of the assay: EGFR Exon20 ASV insertion cellular phosphorylation inhibition (MSD pEGFR Y1068/total EGFR).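 Also: electrochemiluminescent readout on an MSD SECTOR Imager, IL3-independent transduced cells in medium with 1% FBS, compound concentration series at 37 °C and 5% CO2.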 As to conditions: Ba/F3 EGFR ASV ins cells, 4 h compound, p-EGFR(Y1068)/total EGFR.

The next assay concerns Ba/F3 EGFR ASV ins cells. Nature of the assay: Cell proliferation, Ba/F3 EGFR ASV ins (CellTiter-Glo, 72 h).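 Also: IL3-independent Ba/F3 cells transduced with EGFR V769_D770insASV, cellular ATP luminescence after compound exposure, growth relative to DMSO control with the day-0 baseline reading subtracted.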 As to conditions: Ba/F3 EGFR, 72 h, Ba/F3 EGFR ASV ins, 72 h proliferation; read-out: EGFR Exon20 ASV insertion GI50.
In another assay the test system is WT EGFR cell line A-431. Kind of assay: Cell proliferation, WT EGFR A431 (CellTiter-Glo, 72 h).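 Also: proliferation from a luminescent ATP viability signal, expressed as 100 × (treated minus time-zero plate) over (DMSO control minus time-zero plate), cells grown with 10% FBS.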 Particulars: Homo sapiens, A-431, 72 h, A431, 72 h proliferation; read-out: EGFR WT A431 GI50.

T2 sequence (P00533 with tags, fused parts or gaps INS773NPH): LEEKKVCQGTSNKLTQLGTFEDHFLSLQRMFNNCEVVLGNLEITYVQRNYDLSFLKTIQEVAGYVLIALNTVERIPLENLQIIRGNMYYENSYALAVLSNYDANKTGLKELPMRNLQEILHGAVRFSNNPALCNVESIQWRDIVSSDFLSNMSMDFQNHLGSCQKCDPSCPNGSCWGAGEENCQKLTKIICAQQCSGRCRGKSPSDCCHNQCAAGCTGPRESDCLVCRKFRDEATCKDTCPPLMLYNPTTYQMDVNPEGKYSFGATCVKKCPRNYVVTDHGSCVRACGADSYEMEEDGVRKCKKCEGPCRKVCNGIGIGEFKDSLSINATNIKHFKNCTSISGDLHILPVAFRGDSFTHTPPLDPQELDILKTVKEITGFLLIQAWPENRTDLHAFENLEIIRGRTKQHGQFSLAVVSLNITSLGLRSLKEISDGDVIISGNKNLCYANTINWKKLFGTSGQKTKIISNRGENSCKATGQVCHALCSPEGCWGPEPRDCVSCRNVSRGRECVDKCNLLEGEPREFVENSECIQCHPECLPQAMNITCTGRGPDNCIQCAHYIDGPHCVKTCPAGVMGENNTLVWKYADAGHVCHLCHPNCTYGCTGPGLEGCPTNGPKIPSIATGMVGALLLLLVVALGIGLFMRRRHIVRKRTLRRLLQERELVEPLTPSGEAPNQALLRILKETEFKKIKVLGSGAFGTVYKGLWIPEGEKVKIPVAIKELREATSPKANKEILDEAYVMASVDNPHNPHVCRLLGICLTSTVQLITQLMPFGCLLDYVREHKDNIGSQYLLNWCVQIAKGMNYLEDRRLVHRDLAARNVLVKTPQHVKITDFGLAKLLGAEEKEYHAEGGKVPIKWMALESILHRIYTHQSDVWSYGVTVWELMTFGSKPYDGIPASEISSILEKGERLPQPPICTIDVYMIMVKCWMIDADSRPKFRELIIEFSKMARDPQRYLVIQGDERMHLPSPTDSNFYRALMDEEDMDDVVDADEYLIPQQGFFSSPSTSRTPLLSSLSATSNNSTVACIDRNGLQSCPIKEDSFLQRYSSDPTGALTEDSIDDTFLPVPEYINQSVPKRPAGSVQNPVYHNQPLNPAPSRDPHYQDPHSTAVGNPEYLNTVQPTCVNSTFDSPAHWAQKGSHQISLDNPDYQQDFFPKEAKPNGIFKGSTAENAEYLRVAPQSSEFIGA
T5 sequence (P00533 with tags, fused parts or gaps INS769ASV): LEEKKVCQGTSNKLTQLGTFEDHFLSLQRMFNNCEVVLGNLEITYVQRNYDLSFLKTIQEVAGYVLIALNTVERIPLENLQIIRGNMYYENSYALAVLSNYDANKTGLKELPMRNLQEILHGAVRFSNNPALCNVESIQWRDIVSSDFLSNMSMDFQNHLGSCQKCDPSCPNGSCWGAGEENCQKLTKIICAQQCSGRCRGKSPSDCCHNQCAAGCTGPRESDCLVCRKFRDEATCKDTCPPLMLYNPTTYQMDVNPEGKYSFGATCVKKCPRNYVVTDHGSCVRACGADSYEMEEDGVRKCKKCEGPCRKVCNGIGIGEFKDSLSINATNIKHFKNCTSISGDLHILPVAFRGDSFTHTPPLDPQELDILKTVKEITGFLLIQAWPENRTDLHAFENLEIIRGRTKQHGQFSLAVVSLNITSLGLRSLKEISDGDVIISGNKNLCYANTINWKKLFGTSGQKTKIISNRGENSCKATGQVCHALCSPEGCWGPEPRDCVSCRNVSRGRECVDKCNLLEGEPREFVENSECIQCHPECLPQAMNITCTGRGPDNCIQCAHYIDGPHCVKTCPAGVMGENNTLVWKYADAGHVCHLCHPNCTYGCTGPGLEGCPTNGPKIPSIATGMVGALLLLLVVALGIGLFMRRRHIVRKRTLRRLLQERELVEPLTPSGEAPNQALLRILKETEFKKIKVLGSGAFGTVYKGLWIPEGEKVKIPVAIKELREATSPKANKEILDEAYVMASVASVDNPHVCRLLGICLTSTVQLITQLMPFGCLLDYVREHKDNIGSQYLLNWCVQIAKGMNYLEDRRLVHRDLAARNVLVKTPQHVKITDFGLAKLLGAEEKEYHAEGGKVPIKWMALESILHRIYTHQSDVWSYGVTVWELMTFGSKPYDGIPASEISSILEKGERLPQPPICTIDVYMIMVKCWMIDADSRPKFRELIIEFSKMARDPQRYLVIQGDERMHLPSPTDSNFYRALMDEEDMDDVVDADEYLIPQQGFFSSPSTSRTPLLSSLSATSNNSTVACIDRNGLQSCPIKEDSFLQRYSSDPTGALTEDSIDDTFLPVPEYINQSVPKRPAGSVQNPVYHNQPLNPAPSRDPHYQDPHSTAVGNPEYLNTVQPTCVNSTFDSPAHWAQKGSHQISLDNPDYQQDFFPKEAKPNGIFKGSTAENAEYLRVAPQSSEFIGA
T1 sequence (P00533 25-1210 T790M/L858R): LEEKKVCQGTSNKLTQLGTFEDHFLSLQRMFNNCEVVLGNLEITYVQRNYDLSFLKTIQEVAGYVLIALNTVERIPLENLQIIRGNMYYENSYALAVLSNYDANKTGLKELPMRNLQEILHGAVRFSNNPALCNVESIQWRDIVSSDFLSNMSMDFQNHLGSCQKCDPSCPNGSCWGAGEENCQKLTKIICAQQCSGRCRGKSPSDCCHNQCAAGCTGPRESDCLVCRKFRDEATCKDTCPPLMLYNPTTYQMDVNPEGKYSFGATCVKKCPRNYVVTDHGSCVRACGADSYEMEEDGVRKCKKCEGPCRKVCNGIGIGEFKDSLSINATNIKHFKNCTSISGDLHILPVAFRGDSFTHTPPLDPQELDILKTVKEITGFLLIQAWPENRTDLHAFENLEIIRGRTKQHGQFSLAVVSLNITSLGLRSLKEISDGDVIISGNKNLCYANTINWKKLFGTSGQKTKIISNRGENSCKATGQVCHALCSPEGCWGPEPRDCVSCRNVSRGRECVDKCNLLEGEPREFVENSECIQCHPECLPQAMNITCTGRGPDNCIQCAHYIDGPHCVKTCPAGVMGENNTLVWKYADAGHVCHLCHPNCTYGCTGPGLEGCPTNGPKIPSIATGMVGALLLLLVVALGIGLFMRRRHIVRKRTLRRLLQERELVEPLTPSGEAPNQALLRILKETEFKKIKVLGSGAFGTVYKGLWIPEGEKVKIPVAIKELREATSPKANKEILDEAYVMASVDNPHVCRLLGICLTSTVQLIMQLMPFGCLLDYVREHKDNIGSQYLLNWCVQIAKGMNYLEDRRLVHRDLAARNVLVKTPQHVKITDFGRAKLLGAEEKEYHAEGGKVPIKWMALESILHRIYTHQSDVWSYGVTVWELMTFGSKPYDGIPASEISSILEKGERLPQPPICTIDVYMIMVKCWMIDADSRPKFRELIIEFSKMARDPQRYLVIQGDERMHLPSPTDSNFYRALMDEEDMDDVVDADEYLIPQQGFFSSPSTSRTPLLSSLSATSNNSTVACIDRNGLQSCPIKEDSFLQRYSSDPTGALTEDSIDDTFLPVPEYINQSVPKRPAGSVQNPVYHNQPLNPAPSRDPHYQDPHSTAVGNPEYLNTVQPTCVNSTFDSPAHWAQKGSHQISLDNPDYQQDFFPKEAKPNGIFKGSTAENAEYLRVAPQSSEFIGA
Method for OCI-LY-10 cells: OCI-LY-10 at 3,750 cells/well, TMD-8 and Ri-1 at 2,000 cells/well, and DB at 1,250 cells/well, respectively, were sorted into 384-well plates in RPMI1640 medium with 10% FBS. After overnight incubation, all cells were incubated with compound at a series of concentrations. Meanwhile, a duplicated plate of each cell line was prepared for measuring G0 value. The dosed plates were further incubated for 72 hours and the number of viable cells was measured by CellTiter-Glo® Luminescent Cell Viability Assay (Promega), a luminescent method for determining the number of viable cells through measurement of cellular ATP concentration using Envision plate reader (PerkinElmer). The percentage of proliferation was calculated as: % Proliferation = 100 × (G3 value of sample well - G0 value)/(G3 value of DMSO control - G0 value).

On to `C=CC(=O)Nc1cc(Nc2ncnc(Nc3cc(Cl)c(Cl)cc3C(C)(C)O)n2)c(OC)cc1N(C)CCN(C)C` [Compound 15, N-(5-(4-(4,5-dichloro-2-(2-hydroxypropan-2-yl)phenylamino)-1,3,5-triazin-2-ylamino)-2-((2-(dimethylamino)ethyl)(methyl)amino)-4-methoxyphenyl)a crylamide], for which the IC50 came to 0.4 nM on EGFR L858R&T790M; 15.1 nM in assay [2]; 3.8 nM in assay [3]; 8.2 nM at WT EGFR; 7.5 nM in assay [5]. In addition, the GI50 in assay [1] is 7.4 nM; with TMD-8 cells, 2.44 nM; with OCI-LY-10 cells, 4.95 nM; in assay [4], 32.7 nM; in the assay with Ba/F3 EGFR NPH ins cells, 32.9 nM; in the assay on Ri-1 cells, 6.68 nM. The GI50 in the assay on DB cells came out at 1340 nM; in the assay on Ba/F3 EGFR ASV ins cells it was 21.1 nM; with WT EGFR cell line A-431, 7.9 nM.
Take `C=CC(=O)Nc1cc(Nc2ncnc(Nc3cc(F)c(Cl)c(F)c3C(C)(C)O)n2)c(OC)cc1N(C)CCN(C)C` [Compound 16, N-(5-(4-(4-chloro-3,5-difluoro-2-(2-hydroxypropan-2-yl)phenylamino)-1,3,5-triazin-2-ylamino)-2-((2-(dimethylamino)ethyl)(methyl)amino)-4-methoxyphenyl)acrylamide]: the half-maximal inhibitory concentration (IC50) was 0.9 nM at EGFR L858R&T790M; 36 nM in [2]; 16.5 nM in assay [3]; 47.6 nM at WT EGFR; 35.1 nM in assay [5]. For the same compound, the GI50 turned out to be 33.4 nM in assay [1]; 118 nM with TMD-8 cells; 250 nM with OCI-LY-10 cells; 73.4 nM in assay [4]; 81.3 nM with Ba/F3 EGFR NPH ins cells; 334 nM in the assay with Ri-1 cells. The values for the GI50 with DB cells, with Ba/F3 EGFR ASV ins cells and in the assay on WT EGFR cell line A-431 were over 3000 nM, 114 nM and 52.6 nM, respectively.
For `C=CC(=O)Nc1cc(Nc2ncnc(Nc3cc(F)c(F)cc3C(C)(C)O)n2)c(OC)cc1N1CC[C@@H]2CN(C)C[C@@H]21` [Compound 17, N-(5-(4-(4,5-difluoro-2-(2-hydroxypropan-2-yl)phenylamino)-1,3,5-triazin-2-ylamino)-4-methoxy-2-((3aR,6aR)-5-methylhexahydropyrrolo[3,4-b]pyrrol-1(2H)-yl)phenyl) acrylamide], the IC50 at EGFR L858R&T790M came out at 0.3 nM; in [2] it was 13 nM; in assay [3], 6.1 nM; against WT EGFR, 13.5 nM; in [5], 7.8 nM. Also, the GI50 in assay [1] stood at 3.7 nM; in the assay with TMD-8 cells, 53.7 nM; in the assay on OCI-LY-10 cells it was 41.5 nM; in assay [4], 37.7 nM; with Ba/F3 EGFR NPH ins cells, 25 nM; with Ri-1 cells it was 28 nM. Moreover, the GI50 in the assay with DB cells was over 3000 nM; with Ba/F3 EGFR ASV ins cells, 19.6 nM; with WT EGFR cell line A-431, 13.2 nM.
As to `C=CC(=O)Nc1cc(Nc2ncnc(Nc3cc(F)c(F)cc3C(C)(C)O)n2)c(OC)cc1N(C)CCN1CCCC1` [Compound 18], the IC50 was 1.1 nM on EGFR L858R&T790M; 61.1 nM in assay [2]; 22.1 nM in [3]; 58.9 nM against WT EGFR; 42.4 nM in assay [5]. Moreover, the GI50 in assay [1] is 10.9 nM; with TMD-8 cells, 81.7 nM; with OCI-LY-10 cells, 276 nM; in assay [4], 136 nM; with Ba/F3 EGFR NPH ins cells it was 93.6 nM; with Ri-1 cells it was 446 nM. Also, the GI50 in the assay with DB cells is over 3000 nM; in the assay with Ba/F3 EGFR ASV ins cells it was 91.3 nM; with WT EGFR cell line A-431, 42.8 nM.
Regarding `C=CC(=O)Nc1cc(Nc2ncnc(Nc3cc(F)c(F)cc3C(C)(C)O)n2)c(OC)cc1N1CC[C@@H]1CN(C)C` [Compound 19, (R)-N-(5-(4-(4,5-difluoro-2-(2-hydroxypropan-2-yl)phenylamino)-1,3,5-triazin-2-ylamino)-2-(2-((dimethylamino)methyl)azetidin-1-yl)-4-methoxyphenyl)acrylamide], the IC50 at EGFR L858R&T790M came to 0.9 nM; in [2], 46.5 nM; in [3] it was 21.3 nM; at WT EGFR it was 29.7 nM; in assay [5], 29.7 nM. In addition, the GI50 in [1] stood at 9.5 nM; with TMD-8 cells, 13 nM; in the assay with OCI-LY-10 cells it was 10.8 nM; in assay [4] it was 163 nM; in the assay with Ba/F3 EGFR NPH ins cells it was 80 nM; in the assay with Ri-1 cells, 133 nM. Moreover, the values for the GI50 with DB cells, in the assay on Ba/F3 EGFR ASV ins cells and in the assay with WT EGFR cell line A-431 were over 3000 nM, 80.9 nM and 23.1 nM, respectively.
On to `C=CC(=O)Nc1cc(Nc2ncnc(Nc3cc(F)c(F)cc3C(C)(C)O)n2)c(OC)cc1N(C)C[C@H]1CCCN1C` [Compound 20, (R)-N-(5-(4-(4,5-difluoro-2-(2-hydroxypropan-2-yl)phenylamino)-1,3,5-triazin-2-ylamino)-4-methoxy-2-(methyl((1-methylpyrrolidin-2-yl)methyl)amino)phenyl)acrylamide], for which the IC50 amounted to 0.5 nM at EGFR L858R&T790M; 25.3 nM in assay [2]; 11.3 nM in assay [3]; 27.2 nM on WT EGFR; 9.4 nM in assay [5]. Further, the GI50 in assay [1] is 7.7 nM; in the assay on TMD-8 cells, 103 nM; in the assay on OCI-LY-10 cells it was 99.8 nM; in assay [4], 68.1 nM; in the assay with Ba/F3 EGFR NPH ins cells, 51.5 nM; in the assay on Ri-1 cells it was 56.2 nM. The GI50 with DB cells was over 3000 nM; with Ba/F3 EGFR ASV ins cells, 30.8 nM; in the assay on WT EGFR cell line A-431, 16.5 nM.
Consider `C=CC(=O)Nc1cc(Nc2ncnc(Nc3cc(F)c(F)cc3C(C)(C)O)n2)c(OC)cc1N1CCC[C@@H]1CN(C)C` [Compound 21, (R)-N-(5-(4-(4,5-difluoro-2-(2-hydroxypropan-2-yl)phenylamino)-1,3,5-triazin-2-ylamino)-2-(2-((dimethylamino)methyl)pyrrolidin-1-yl)-4-methoxyphenyl)acrylamide], for which the half-inhibitory concentration (IC50) on EGFR L858R&T790M came to 0.2 nM; in assay [2] it was 6.8 nM; in assay [3] it was 1.7 nM; against WT EGFR, 5.1 nM; in assay [5], 2.3 nM. Besides, the GI50 was 2.5 nM in assay [1]; 19.2 nM in the assay with TMD-8 cells; 9.7 nM in the assay with OCI-LY-10 cells; 13.2 nM in assay [4]; 11.2 nM in the assay with Ba/F3 EGFR NPH ins cells; 11.2 nM in the assay with Ri-1 cells. The GI50 was over 3000 nM in the assay with DB cells, 8.2 nM in the assay with Ba/F3 EGFR ASV ins cells and 4.1 nM in the assay with WT EGFR cell line A-431.
With `C=CC(=O)Nc1cc(Nc2ncnc(Nc3cc(Cl)c(F)cc3C(C)(C)O)n2)c(OC)cc1N(C)CCN1CCCCC1` [Compound 26, N-(5-(4-(5-chloro-4-fluoro-2-(2-hydroxypropan-2-yl)phenylamino)-1,3,5-triazin-2-ylamino)-4-methoxy-2-(methyl(2-(piperidin-1-yl)ethyl)amino)phenyl)acrylamide], the IC50 on EGFR L858R&T790M is 1.3 nM; in [2] it was 43.5 nM; in [3], 9.5 nM; against WT EGFR it was 103 nM; in [5], 40.5 nM. The concentration for 50% growth inhibition (GI50) was found to be 32.4 nM in [1]; 12.6 nM in the assay with TMD-8 cells; 45.3 nM in the assay on OCI-LY-10 cells; 253 nM in assay [4]; 123 nM in the assay on Ba/F3 EGFR NPH ins cells; 50.5 nM in the assay on Ri-1 cells. Further, the GI50 in the assay with DB cells is over 3000 nM; in the assay with Ba/F3 EGFR ASV ins cells, 99.5 nM; in the assay on WT EGFR cell line A-431 it was 57.8 nM.

For orientation: IC50 means the midpoint of a concentration-inhibition curve. A word on the GI50: it is the concentration giving 50% growth inhibition.
